Test results as given in PubChem BioAssay (NCI).
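The compound was tested at five concentrations on cells cultured in 96-well plates, with a 48-hour exposure period. Abbreviation: GI50, concentration required for 50% inhibition of growth. TGI marks complete inhibition of growth.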

Experiments:
Experiment in all cases: growth of human tumour cells (NCI), 48 h
OVCAR-8 ovarian = test system: OVCAR-8 ovarian
M14 melanoma = test system: M14 melanoma
NCI-H226 lung = test system: NCI-H226 lung
DU-145 prostate = test system: DU-145 prostate
HL-60(TB) leukemia = test system: HL-60(TB) leukemia
SK-MEL-28 melanoma = test system: SK-MEL-28 melanoma
RPMI-8226 leukemia = test system: RPMI-8226 leukemia
MDA-MB-231 breast = test system: MDA-MB-231 breast
MDA-MB-435 = test system: MDA-MB-435
UO-31 renal = test system: UO-31 renal
IGROV1 ovarian = test system: IGROV1 ovarian
SN12C renal = test system: SN12C renal
CCRF-CEM leukemia = test system: CCRF-CEM leukemia
SK-MEL-5 melanoma = test system: SK-MEL-5 melanoma
HCT-15 colon = test system: HCT-15 colon
NCI/ADR-RES ovarian = test system: NCI/ADR-RES ovarian
A549 NSCLC = test system: A549 NSCLC
MOLT-4 leukemia = test system: MOLT-4 leukemia
SNB-75 CNS = test system: SNB-75 CNS
UACC-62 melanoma = test system: UACC-62 melanoma
OVCAR-4 ovarian = test system: OVCAR-4 ovarian
TK-10 renal = test system: TK-10 renal
T-47D breast = test system: T-47D breast
BT-549 breast = test system: BT-549 breast
ACHN renal = test system: ACHN renal
NCI-H23 lung = test system: NCI-H23 lung
KM12 colon = test system: KM12 colon
K-562 leukemia = test system: K-562 leukemia
SR leukemia = test system: SR leukemia
SK-MEL-2 melanoma = test system: SK-MEL-2 melanoma
MALME-3M melanoma = test system: MALME-3M melanoma
LOX IMVI melanoma = test system: LOX IMVI melanoma
HT29 colon = test system: HT29 colon
OVCAR-5 ovarian = test system: OVCAR-5 ovarian
UACC-257 melanoma = test system: UACC-257 melanoma
HOP-92 NSCLC = test system: HOP-92 NSCLC
OVCAR-3 ovarian = test system: OVCAR-3 ovarian
NCI-H522 lung = test system: NCI-H522 lung
786-0 renal = test system: 786-0 renal
MCF7 breast = test system: MCF7 breast
SK-OV-3 ovarian = test system: SK-OV-3 ovarian
SW-620 colon = test system: SW-620 colon
SF-539 CNS = test system: SF-539 CNS
HS 578T breast = test system: HS 578T breast
HCC-2998 colon = test system: HCC-2998 colon
U251 CNS = test system: U251 CNS
HCT-116 colon = test system: HCT-116 colon
PC-3 prostate = test system: PC-3 prostate
SF-268 CNS = test system: SF-268 CNS
NCI-H460 lung = test system: NCI-H460 lung
SF-295 CNS = test system: SF-295 CNS
COLO 205 colon = test system: COLO 205 colon
A498 renal = test system: A498 renal
RXF 393 renal = test system: RXF 393 renal
CAKI-1 renal = test system: CAKI-1 renal
HOP-62 NSCLC = test system: HOP-62 NSCLC
SNB-19 CNS = test system: SNB-19 CNS

Compound: CC(=O)N1CCC(Nc2ncc3cc(Oc4ccc(F)cc4F)c(=O)n(C)c3n2)CC1
- GI50 (OVCAR-8 ovarian): > 25 µM
- TGI (OVCAR-8 ovarian): > 25 µM
- GI50 (M14 melanoma): > 25 µM
- TGI (M14 melanoma): > 25 µM
- GI50 (NCI-H226 lung): > 25 µM
- TGI (NCI-H226 lung): > 25 µM
- GI50 (DU-145 prostate): > 25 µM
- TGI (DU-145 prostate): > 25 µM
- GI50 (HL-60(TB) leukemia): > 25 µM
- TGI (HL-60(TB) leukemia): > 25 µM
- GI50 (SK-MEL-28 melanoma): > 25 µM
- TGI (SK-MEL-28 melanoma): > 25 µM
- GI50 (RPMI-8226 leukemia): > 25 µM
- TGI (RPMI-8226 leukemia): > 25 µM
- GI50 (MDA-MB-231 breast): > 25 µM
- TGI (MDA-MB-231 breast): > 25 µM
- GI50 (MDA-MB-435): > 25 µM
- TGI (MDA-MB-435): > 25 µM
- GI50 (UO-31 renal): > 17.7 µM
- TGI (UO-31 renal): > 25 µM
- GI50 (IGROV1 ovarian): > 25 µM
- TGI (IGROV1 ovarian): > 25 µM
- GI50 (SN12C renal): > 25 µM
- TGI (SN12C renal): > 25 µM
- GI50 (CCRF-CEM leukemia): > 25 µM
- TGI (CCRF-CEM leukemia): > 25 µM
- GI50 (SK-MEL-5 melanoma): > 25 µM
- TGI (SK-MEL-5 melanoma): > 25 µM
- GI50 (HCT-15 colon): > 25 µM
- TGI (HCT-15 colon): > 25 µM
- GI50 (NCI/ADR-RES ovarian): > 25 µM
- TGI (NCI/ADR-RES ovarian): > 25 µM
- GI50 (A549 NSCLC): > 25 µM
- TGI (A549 NSCLC): > 25 µM
- GI50 (MOLT-4 leukemia): > 25 µM
- TGI (MOLT-4 leukemia): > 25 µM
- GI50 (SNB-75 CNS): > 22 µM
- TGI (SNB-75 CNS): > 25 µM
- GI50 (UACC-62 melanoma): > 25 µM
- TGI (UACC-62 melanoma): > 25 µM
- GI50 (OVCAR-4 ovarian): > 18.8 µM
- TGI (OVCAR-4 ovarian): > 25 µM
- GI50 (TK-10 renal): > 25 µM
- TGI (TK-10 renal): > 25 µM
- GI50 (T-47D breast): > 25 µM
- TGI (T-47D breast): > 25 µM
- GI50 (BT-549 breast): > 25 µM
- TGI (BT-549 breast): > 25 µM
- GI50 (ACHN renal): > 25 µM
- TGI (ACHN renal): > 25 µM
- GI50 (NCI-H23 lung): > 25 µM
- TGI (NCI-H23 lung): > 25 µM
- GI50 (KM12 colon): > 25 µM
- TGI (KM12 colon): > 25 µM
- GI50 (K-562 leukemia): > 25 µM
- TGI (K-562 leukemia): > 25 µM
- GI50 (SR leukemia): > 25 µM
- TGI (SR leukemia): > 25 µM
- GI50 (SK-MEL-2 melanoma): > 25 µM
- TGI (SK-MEL-2 melanoma): > 25 µM
- GI50 (MALME-3M melanoma): > 25 µM
- TGI (MALME-3M melanoma): > 25 µM
- GI50 (LOX IMVI melanoma): > 25 µM
- TGI (LOX IMVI melanoma): > 25 µM
- GI50 (HT29 colon): > 25 µM
- TGI (HT29 colon): > 25 µM
- GI50 (OVCAR-5 ovarian): > 25 µM
- TGI (OVCAR-5 ovarian): > 25 µM
- GI50 (UACC-257 melanoma): > 25 µM
- TGI (UACC-257 melanoma): > 25 µM
- GI50 (HOP-92 NSCLC): 2.45 µM
- TGI (HOP-92 NSCLC): > 25 µM
- GI50 (OVCAR-3 ovarian): > 25 µM
- TGI (OVCAR-3 ovarian): > 25 µM
- GI50 (NCI-H522 lung): > 25 µM
- TGI (NCI-H522 lung): > 25 µM
- GI50 (786-0 renal): > 25 µM
- TGI (786-0 renal): > 25 µM
- GI50 (MCF7 breast): > 25 µM
- TGI (MCF7 breast): > 25 µM
- GI50 (SK-OV-3 ovarian): > 25 µM
- TGI (SK-OV-3 ovarian): > 25 µM
- GI50 (SW-620 colon): > 25 µM
- TGI (SW-620 colon): > 25 µM
- GI50 (SF-539 CNS): > 25 µM
- TGI (SF-539 CNS): > 25 µM
- GI50 (HS 578T breast): 8.69 µM
- TGI (HS 578T breast): > 25 µM
- GI50 (HCC-2998 colon): > 25 µM
- TGI (HCC-2998 colon): > 25 µM
- GI50 (U251 CNS): > 25 µM
- TGI (U251 CNS): > 25 µM
- GI50 (HCT-116 colon): > 25 µM
- TGI (HCT-116 colon): > 25 µM
- GI50 (PC-3 prostate): > 25 µM
- TGI (PC-3 prostate): > 25 µM
- GI50 (SF-268 CNS): > 25 µM
- TGI (SF-268 CNS): > 25 µM
- GI50 (NCI-H460 lung): > 25 µM
- TGI (NCI-H460 lung): > 25 µM
- GI50 (SF-295 CNS): > 25 µM
- TGI (SF-295 CNS): > 25 µM
- GI50 (COLO 205 colon): > 25 µM
- TGI (COLO 205 colon): > 25 µM
- GI50 (A498 renal): 9.26 µM
- TGI (A498 renal): > 25 µM
- GI50 (RXF 393 renal): > 16.9 µM
- TGI (RXF 393 renal): > 25 µM
- GI50 (CAKI-1 renal): > 25 µM
- TGI (CAKI-1 renal): > 25 µM
- GI50 (HOP-62 NSCLC): > 25 µM
- TGI (HOP-62 NSCLC): > 25 µM
- GI50 (SNB-19 CNS): > 25 µM
- TGI (SNB-19 CNS): > 25 µM
